Source: patent publication US10793514B2, “Glutamine transport inhibitors and methods for treating cancer” (Vanderbilt University, priority 2016, dated 2020)

Experiments:
[1] = tested on: human CRC cell lines; assay: Follow-up viability screening (MultiTox Glo, sulforhodamine B); assay type: cell-based
Procedure: Viability was evaluated using a commercially available chemiluminescent reagents (CellTiter-Glo, Promega Corp. G7572; MultiTox Glo, Promega Corp. G9270) in 96-well plate format according to the manufacturers protocol. […] Subsequently, CellTiter-Glo reagent was added and the plates were read using a plate reader (BioTek Synergy 4) with standard settings. Each set of conditions was replicated at least three times, technically and biologically. Error is reported as standard deviation (SD). The sulforhodamine B assay was run analogously to the above assays as previously described^19.

[2] = tested on: HCT-116 (KRAS G13D) cell-line xenografts; assay: HCT-116 xenograft chronic exposure study; assay type: in vivo, mouse; conditions: 75 mg/kg per day, 21 days
Procedure: Tissues were sectioned (5 μm thickness) and stained for pS6 (Cell Signaling, #4858) and caspase 3 (Cell Signaling #9661). Tissue slides were imaged at 20× magnification.
For in vivo studies, cell-line xenograft tumors were propagated in 6-week old, female athymic nude mice from immortalized cell lines. For HCC-1806 (10×10^6 cells), HCT-116 (5×10^6), and HT29 (10×10^6) cells were injected. Palpable tumors were typically visible within 2-3 weeks. For imaging studies (HCC-1806), tumors were propagated to approximately 500 mm^3. For treatment studies (HCT-116, HT29) tumors were propagated to approximately 200 mm^3 prior to therapy and were randomly assigned into treated and untreated cohorts. For generating the PDX, primary tumor tissue was obtained form a patient at Vanderbilt University Medical Center under an IRB approved protocol. The tumor tissue was genotyped within the VANTAGE core facility. Xenograft was generated as previously described 41. Briefly, tumor tissues were sectioned into approximately 125 cubic millimeter pieces then implanted subcutaneously without further manipulation. […] Tumor volumes were measured manually using calipers every third day and quantified using the formula V=W·L·(H/2).

[3] = target: ASCT2 (Homo sapiens (Human), UniProt Q15758); assay: Drug Affinity Responsive Target Stability (DARTS) assay, ASCT2; conditions: tetracycline-inducible ASCT2 HEK293 cells; 50, 100, 200 μM
[4] = tested on: HCC1806 cells; assay: Glutathione and reactive oxygen species in HCC1806 cells; assay type: cell-based, human
Procedure: Glutathione levels were measured using a commercially available kit (Cayman Chemical 703002) according to the manufacturers protocol. Concurrently ROS was measured in cells using CM-H2DCFDA (Life Technologies C6827) coupled with flow cytometry in accordance with the manufacturers protocol. The assay was replicated replicated at least three times, technically and biologically. Significance was calculated using a t-test in Graphpad Prism. Error is reported as standard deviation (SD).

[5] = tested on: human CRC organoids A-007 and A-008; assay: Human CRC organoid viability assay; assay type: cell-based; conditions: V-9302 25 μM or CB-839 35 μM, 96 h
Procedure: Human CRC-derived organoids were prepared as reported method with modification^41. Briefly, specimens from freshly resected tumors were minced and digested with 2 mg/ml type 2 collagenase (Worthington, N.J., USA). Samples were passed through 40 µm filters (Greiner Bio One, NC, USA) and epithelial cells trapped on the filters were embed in Matrigel (Corning, MA, USA) and cultured with advanced DMEM/F12 supplemented with N2 and B27 supplements (Thermo Fischer, MA, USA), 50 ng/ml rhEGF (R&D systems, MN, USA) and 1% antibiotic-antimycotic (Corning). For viability assay, organoids were dissociated by TrypLE express (Thermo Fischer) and suspended in Matrigel. […] After 4 days of culture, images of the organoids in Matrigel were captured and the number of viable cells were quantified with CellTiter Aqueous One Cell Proliferation Assay kit (Promega, WI, USA) and a Synergy 4 plate reader (BioTek, VT, USA). The assay was replicated at least three times, technically and biologically. Significance was calculated using a t-test in Graphpad Prism. Error is reported as standard deviation (SD).

[6] = tested on: HCC1806 cell line xenograft; assay: [18F]-4F-glutamine PET imaging; assay type: in vivo, mouse; conditions: single dose 75 mg/kg, 4 h
Procedure: Animal handling methods for PET imaging studies were conducted as reported^5,42 Prior to imaging, animals were allowed to acclimate to facility environment for at least 1 h in a warmed chamber at 31.5° C. Animals were administered 10.4-11.8 MBq 4-[^18F]fluoroglutamine via intravenous injection and imaged using a Concorde Microsystems Focus 220 microPET scanner (Siemens Preclinical Solutions). During imaging, animals were maintained under 2% isoflurane anesthesia in oxygen at 2 L/min and kept warm for the duration of the PET scan. PET images in xenograft-bearing mice were acquired as 60-minute dynamic data sets. […] PET data were reconstructed using a three-dimensional (3D) ordered subset expectation maximization/maximum a posteriori (OSEM3D/MAP) algorithm. […] ASIPro software (Siemens Preclinical Solutions) was used to manually draw 3D regions of interest (ROIs) surrounding the entire tumor volume. 4-[^18F]fluoroglutamine uptake was quantified as the percentage of the injected dose per gram of tissue (% ID/g). Significance was calculated using a t-test in Graphpad Prism. Error is reported as standard deviation (SD).
For in vivo studies, cell-line xenograft tumors were propagated in 6-week old, female athymic nude mice from immortalized cell lines. […] Tumor volumes were measured manually using calipers every third day and quantified using the formula V=W·L·(H/2).

[7] = tested on: HCC1806 cells; assay: LC3B immunofluorescence; assay type: cell-based, human; conditions: 25 μM, 48 hrs
Procedure: Following treatment, cells were fixed with 70% methanol for 5-10 min. LC3B was visualized with 1:100 primary antibody (anti LC3B, Cell signaling 2775) at 37° C. for 45 min followed by application of 1:600 secondary antibody (Rhodamine Red, Invitrogen R6394) at 37° C. for 30 min and DAPI for 4 min. Images were acquired with a fluorescence microscope at visualized at 40× magnification.

[8] = tested on: HEK-293 cells; assay: 3H-labeled amino acid uptake selectivity panel; assay type: cell-based, human; conditions: 3H-leucine, HEK293
Procedure: Live-cell amino acid uptake assays using HEK293 cells were carried out in 96-well plates (CulturPlate-96, Perkin Elmer). 96-well plates were coated with poly-D-lysine prior to the assay. Cells were plated at a density of 35,000 cells per well 24 h prior to carrying out the assay. Each set of conditions was replicated at least three times, technically and biologically. […] For ASCT2-mediated ^3H-glutamine uptake assays, 5 mM of the system-L inhibitor 2-amino-2-norbornanecarboxylic acid (BCH) was added and the assay buffer was adjusted to pH 6.0. For selectivity studies, no BCH was added and the assay was conducted at pH 7.4. Following the incubation period, the ^3H-glutamine/inhibitor was removed and the cells were washed three times with assay buffer. The cells were then lysed by the addition of 50 μL of 1 M NaOH. For reading, 150 μL of scintillation fluid (Microscint 40, Perkin Elmer) was added and the plates were counted on a scintillation counter (Topcount, Perkin Elmer). Fifty percent inhibitory concentrations (IC50) were calculated using GraphPad Prism version 6 for Mac OS X, GraphPad Software, San Diego Calif. USA, www.graphpad.com. Error is reported as standard deviation (SD).

ASCT2, sequence (Q15758 whole entry): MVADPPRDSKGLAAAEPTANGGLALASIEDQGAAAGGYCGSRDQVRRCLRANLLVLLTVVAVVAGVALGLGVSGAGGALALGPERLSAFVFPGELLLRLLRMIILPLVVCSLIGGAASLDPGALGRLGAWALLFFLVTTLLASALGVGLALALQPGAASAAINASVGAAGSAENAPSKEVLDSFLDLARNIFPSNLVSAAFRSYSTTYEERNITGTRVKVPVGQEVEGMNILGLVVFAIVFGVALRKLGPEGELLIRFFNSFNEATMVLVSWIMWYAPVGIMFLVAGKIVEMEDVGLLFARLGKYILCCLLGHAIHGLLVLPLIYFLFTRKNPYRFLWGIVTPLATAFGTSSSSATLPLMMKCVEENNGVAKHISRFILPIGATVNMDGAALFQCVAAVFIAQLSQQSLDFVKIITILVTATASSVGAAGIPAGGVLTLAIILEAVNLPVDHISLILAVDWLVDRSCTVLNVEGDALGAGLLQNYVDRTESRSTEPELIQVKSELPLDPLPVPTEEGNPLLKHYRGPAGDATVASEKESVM

Cc1cccc(COc2ccccc2CN(CCC(N)C(=O)O)Cc2ccccc2OCc2cccc(C)c2)c1 (stereo not drawn) [Compound V-9302]
cellular viability and cell death ([1]; 25 μM, 48 h, three independent assays lacking ATP-dependency): reduced cellular viability and increased cell death
EC50 ([1]; four human CRC cell lines, 48 hrs, MultiTox Glo, read-out: EC50, cellular viability): 9 to 15 µM
cleaved caspase 3 in tumor tissue ([2]; IHC): elevated levels of cleaved caspase 3
pS6 in tumor tissue ([2]; IHC): significantly decreased pS6
tumor growth ([2]; vs vehicle): prevented tumor growth
protection of ASCT2 from proteolysis (thermolysin) [3]: protected from proteolysis in a V-9302 concentration-dependent manner
intracellular reactive oxygen species (ROS) [4]: corresponding increase in intracellular reactive oxygen species (ROS)
oxidized (GSSG) and reduced (GSH) glutathione [4]: increased levels of oxidized glutathione (GSSG) at the expense of reduced glutathione (GSH)
organoid viability [5]: significantly reduced
reduction of [18F]-4F-glutamine uptake in tumors [6]: approximately 50%
LC3B, marker of autophagy [7]: elevated LC3B
inhibition of leucine uptake [8]: capable of inhibiting the uptake of another ASCT2 substrate, leucine
